The text below walks through data of US20250144230A1, “LINKERS FOR USE IN ANTIBODY DRUG CONJUGATES” (Orum Therapeutics, Inc., priority 2021, published 2025).

Where a SMILES comes first, the peptide text is derived from it. The star is where a group is joined. X1 = CSCCc1ccc(NC(=O)NCc2ccc3c(c2)CN(C2CCC(=O)N(CN*)C2=O)C3=O)cc1Cl; Hexanoyl(6-maleimido) = O=C1C=CC(=O)N1CCCCCC(=O)*

One may read the EC50 as the concentration giving half of the maximal effect. Low readings indicate higher potency in that assay, high ones lower potency in that assay.

The subject of assay [1] is MV-4-11 human acute myeloid leukemia cells. As to the kind of experiment: In vivo MV-4-11 subcutaneous myeloid leukemia tumor model. The note with it: 10 mg/kg IP once a day for 14 days. The arrangement: species or system Athymic Nude mice. As to the method:
Subcutaneous tumor model—MV-4-11 human acute myeloid leukemia cells (1×10^7 cells in 0.1 mL) were subcutaneously inoculated into the right flank of female Athymic Nude mice. Mice were treated with each test article when the tumor size reached 100-150 mm^3. 10 mg/kg of CD33-D antibody-Compound (XL) conjugate (in 20 mM succinate, 8% sucrose, 0.01% Tween-20 pH 5.5) was delivered by intravenous administration (IV) once a week for 2 weeks. 0.4 mg/kg of Compound (XL) (in 5% NMP, 45% PEG300, 20 mM NaPi pH 6.5) and 10 mg/kg of ARV-825 (as described in Liu, et al. Chemistry & Biology 2015, volume 22, pages 755-763) in 1.5 mg/mL, 5% Kolliphor, HS15 WFI Buffer was treated by intraperitoneal administration (IP) once a day for 14 days. Tumor size and mouse body weight were measured twice per week. Subcutaneous tumor volume (mm^3) was calculated with the following formula: (a×b^2/2) where ‘b’ is the smallest diameter and ‘a’ is the largest diameter. The study endpoint is that individual mice were euthanized following respective tumor volume ≥1,000 mm^3 or day 60, whichever came first.

Assay [2] deals with T1, papain (Carica papaya, UniProt P00784).
T1 sequence (P00784 134-345): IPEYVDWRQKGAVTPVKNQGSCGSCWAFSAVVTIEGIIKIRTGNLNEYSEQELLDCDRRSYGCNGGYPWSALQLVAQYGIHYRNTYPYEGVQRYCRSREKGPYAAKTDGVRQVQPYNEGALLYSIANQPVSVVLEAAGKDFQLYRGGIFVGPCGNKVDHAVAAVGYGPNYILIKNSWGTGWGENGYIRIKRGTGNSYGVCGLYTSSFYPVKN
As to the kind of experiment: Papain digestion 2 of linker-payload compounds, in vitro payload release. It counts as biochemical. The note with it: for % Payload Released / By-Products: GGFG*G (payload-CH2NHC(O)CH2NH2, cleavage between two glycines of linker) / By-Products: uncleaved: 10 μM compound, papain 2 molar equivalents, 2 hours; for % Payload Released: PBS pH 7.4, 5% DMA, room temperature; for By-Products: GGFG*G (payload-CH2NHC(O)CH2NH2, cleavage between two glycines of linker) / By-Products: uncleaved: PBS pH 7.4, room temperature; for yield of desired payload released by papain (in words): papain treatment. As to the method:
10 μM of either Compound (XL), Compound (XI), Compound (XIV), Compound (XV), Compound (XII), or Compound (XVII) (PBS pH 7.4, 5% DMA co-solvent) was incubated with papain (2 molar equivalents) at room temperature for 2 hours with gentle shaking. The digests were extracted with 5 volumes of ice-cold acetonitrile and dried down, followed by reconstitution in 95:5:0.1 water:acetonitrile:formic acid. The samples were submitted for LC-MS analysis (Thermo Exploris 240) and using the appropriate reference standards, the released payload and/or incompletely cleaved linker byproducts were identified and quantified.

For assay [3], the target named is T2, β-glucuronidase (Escherichia coli, UniProt P05804).
T2 construct: purchased Sigma Type IX-A
T2 sequence (P05804 whole entry): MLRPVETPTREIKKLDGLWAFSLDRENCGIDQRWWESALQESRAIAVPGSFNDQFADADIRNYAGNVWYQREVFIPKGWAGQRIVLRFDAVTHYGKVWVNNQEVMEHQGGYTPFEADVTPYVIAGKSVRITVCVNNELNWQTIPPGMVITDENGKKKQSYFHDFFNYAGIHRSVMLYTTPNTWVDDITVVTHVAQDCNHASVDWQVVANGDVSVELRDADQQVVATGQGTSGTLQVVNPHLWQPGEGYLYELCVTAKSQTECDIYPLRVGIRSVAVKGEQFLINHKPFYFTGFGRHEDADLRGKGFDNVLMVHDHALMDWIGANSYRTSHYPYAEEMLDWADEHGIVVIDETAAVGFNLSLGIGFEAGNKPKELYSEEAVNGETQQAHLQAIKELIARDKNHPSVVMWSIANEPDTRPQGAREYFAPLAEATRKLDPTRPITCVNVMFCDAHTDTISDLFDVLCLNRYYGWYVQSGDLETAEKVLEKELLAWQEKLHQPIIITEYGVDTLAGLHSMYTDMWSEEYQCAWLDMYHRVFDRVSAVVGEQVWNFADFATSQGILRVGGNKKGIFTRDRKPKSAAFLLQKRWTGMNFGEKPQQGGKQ
As to the kind of experiment: β-Glucuronidase digestion, in vitro payload release. Format: biochemical. As to the method: 10 μM Compound (XLI) was incubated with β-glucuronidase (Sigma, Type IX-A; 1 mg/mL solution in PBS, […]) and the reaction mixture was incubated at 37° C. for 3 hours with gentle shaking. The digests were extracted with 5 volumes of ice-cold acetonitrile and dried down, followed by reconstitution in 95:5:0.1 water:acetonitrile:formic acid. The samples were submitted for LC-MS analysis (Thermo Exploris 240) and using the appropriate reference standards, the released payload and/or incompletely cleaved linker byproducts were identified and quantified.

Assay [4] has as its target T3, CD33 (UniProt P20138 18-364, limits assumed).
T3 construct: whole, on cells; Endogenous antigen on the cell line; also called CD33 surface antigens
As to the kind of experiment: flow cytometry binding to MV4-11 cells (procedure of Example 10). On the technique in general: A flow cytometer gives signals particle by particle.

T3 sequence (P20138 18-364 limits assumed): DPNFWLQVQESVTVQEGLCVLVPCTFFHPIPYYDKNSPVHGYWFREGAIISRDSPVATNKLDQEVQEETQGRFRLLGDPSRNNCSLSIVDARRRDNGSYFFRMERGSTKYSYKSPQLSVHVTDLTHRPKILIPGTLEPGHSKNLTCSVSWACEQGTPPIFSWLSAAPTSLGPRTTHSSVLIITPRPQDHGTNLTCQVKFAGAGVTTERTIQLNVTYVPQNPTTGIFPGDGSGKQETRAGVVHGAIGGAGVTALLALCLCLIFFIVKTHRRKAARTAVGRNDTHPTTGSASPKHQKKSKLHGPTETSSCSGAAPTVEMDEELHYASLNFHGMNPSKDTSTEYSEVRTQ

Take `Cc1sc2c(c1C)C(c1ccc(Cl)cc1)=N[C@@H](CC(=O)Nc1ccc(OCCOCCOCCOCCNc3cccc4c3C(=O)N(C3CCC(=O)NC3=O)C4=O)cc1)c1nnc(C)n1-2` (some centres unmarked) [ARV-825]: the “effect on MV-4-11 tumor growth” value in assay [1] is “inactive”.
As to `O=C(CCCCCN1C(=O)C=CC1=O)NCC(=O)NCC(=O)N[C@@H](Cc1ccccc1)C(=O)NCC(=O)NCC(=O)NCN1C(=O)CCC(N2Cc3c(C#CCCCNC(=O)c4ccc(NC(=O)[C@@H]5NC6(CCCCC6)[C@@]6(C(=O)Nc7cc(Cl)ccc76)[C@H]5c5cccc(Cl)c5F)cc4)cccc3C2=O)C1=O` (stereo partly drawn) [Compound (XII), (3′R,4'S,5′R)-6″-chloro-4′-(3-chloro-2-fluorophenyl)-N-(4-{[5-(2-{1-[(2-{2-[(2S)-2-(2-{2-[6-(2,5-dioxopyrrol-1-yl)hexanamido]acetamido}acetamido)-3-phenylpropanamido]acetamido}acetamido)methyl]-2,6-dioxopiperidin-3-yl}-1-oxo-3H-isoindol-4-yl)pent-4-yn-1-yl]carbamoyl}phenyl)-2″-oxo-1″H-dispiro[cyclohexane-1,2′-pyrrolidine-3′,3″-indole]-5′-carboxamide], in assay [2], the “% Payload Released” value came out at 9.4%; the “By-Products: GGFG*G (payload-CH2NHC(O)CH2NH2, cleavage between two glycines of linker)” value (“By-Products: GGFG*G” for short) is 57.0%,; the “By-Products: uncleaved” value is listed as “uncleaved 33.6%”; the “yield of desired payload released by papain (in words)” value (from here on “yield … by papain (in words)”) was “lower yields of the desired payload”.
On the same counts, the results for `Cc1sc2c(c1C)C(c1ccc(Cl)cc1)=N[C@@H](CC(=O)NCCCCCC(=O)NCc1cccc3c1C(=O)N(C1CCC(=O)N(CNC(=O)CNC(=O)CNC(=O)[C@H](Cc4ccccc4)NC(=O)CNC(=O)CNC(=O)CCCCCN4C(=O)C=CC4=O)C1=O)C3=O)c1nnc(C)n1-2` (stereo partly drawn) [Compound (XIV), 6-{2-[(9S)-7-(4-chlorophenyl)-4,5,13-trimethyl-3-thia-1,8,11,12-tetraazatricyclo[8.3.0.0^{2,6}]trideca-2(6),4,7,10,12-pentaen-9-yl]acetamido}-N-[(2-{1-[(2-{2-[(2S)-2-(2-{2-[6-(2,5-dioxopyrrol-1-yl)hexanamido]acetamido}acetamido)-3-phenylpropanamido]acetamido}acetamido)methyl]-2,6-dioxopiperidin-3-yl}-1,3-dioxoisoindol-4-yl)methyl]hexanamide] are 11.6%, 40.5%,, “uncleaved 47.9%” and “lower yields of the desired payload”.
Consider `Cn1cc(-c2cc(NC(=O)CCCCC(=O)NCCCCNc3cccc4c3C(=O)N(C3CCC(=O)N(CNC(=O)CNC(=O)[C@H](Cc5ccccc5)NC(=O)CNC(=O)CNC(=O)CCCCCN5C(=O)C=CC5=O)C3=O)C4=O)ccc2Oc2ccc(F)cc2F)c2cc[nH]c2c1=O.O=C(O)C(F)(F)F` (stereo partly drawn) [Compound (XL), N′-[4-(2,4-difluorophenoxy)-3-{6-methyl-7-oxo-1H-pyrrolo[2,3-c]pyridin-4-yl}phenyl]-N-[4-({2-[1-({2-[(2S)-2-(2-{2-[6-(2,5-dioxopyrrol-1-yl)hexanamido]acetamido}acetamido)-3-phenylpropanamido]acetamido}methyl)-2,6-dioxopiperidin-3-yl]-1,3-dioxoisoindol-4-yl}amino)butyl]hexanediamide; trifluoroacetic acid], for which, in assay [2], the “% Payload Released” value amounted to 90.2% and the “yield … by papain (in words)” value is “excellent yield”.
Regarding `CNCCOCCc1ccc(NC(=O)NCc2ccc3c(c2)CN(C2CCC(=O)N(CN(C)C(=O)OCc4ccc(O[C@@H]5O[C@H](C(=O)O)[C@@H](O)[C@H](O)[C@H]5O)c(NC(=O)CCNC(=O)CCN5C(=O)C=CC5=O)c4)C2=O)C3=O)cc1Cl` (stereo partly drawn) [Compound (XLI), (2S,3S,4S,5R,6S)-6-[4-({[({3-[5-({[(3-chloro-4-{2-[2-(methylamino)ethoxy]ethyl}phenyl)carbamoyl]amino}methyl)-1-oxo-3H-isoindol-2-yl]-2,6-dioxopiperidin-1-yl}methyl)(methyl)carbamoyl]oxy}methyl)-2-{3-[3-(2,5-dioxopyrrol-1-yl)propanamido]propanamido}phenoxy]-3,4,5-trihydroxyoxane-2-carboxylic acid], the “% Payload Released” value in assay [3] (10 μM compound, β-glucuronidase, 37° C., 3 hours) was found to be 90.9%. In assay [3] (β-glucuronidase treatment), the “yield of desired payload released by β-glucuronidase (in words)” value is listed as “excellent yield”.
As to `N#Cc1ccc(O[C@H]2CC[C@H](NC(=O)c3ccc(N4CCC(CN5CCN(c6cc7c(cc6F)C(=O)N(C6CCC(=O)N(CNC(=O)CNC(=O)CNC(=O)[C@H](Cc8ccccc8)NC(=O)CNC(=O)CNC(=O)CCCCCN8C(=O)C=CC8=O)C6=O)C7=O)CC5)CC4)nn3)CC2)cc1Cl` (stereo partly drawn) [Compound (XV), 6-(4-{[4-(2-{1-[(2-{2-[(2S)-2-(2-{2-[6-(2,5-dioxopyrrol-1-yl)hexanamido]acetamido}acetamido)-3-phenylpropanamido]acetamido}acetamido)methyl]-2,6-dioxopiperidin-3-yl}-6-fluoro-1,3-dioxoisoindol-5-yl)piperazin-1-yl]methyl}piperidin-1-yl)-N-[(1r,4r)-4-(3-chloro-4-cyanophenoxy)cyclohexyl]pyridazine-3-carboxamide], in assay [2], the “% Payload Released” value worked out at 5.8%; the “By-Products: GGFG*G” value was 78.3%,; the “By-Products: uncleaved” value was “uncleaved 15.8%”; the “yield … by papain (in words)” value was “lower yields of the desired payload”.
Turning to `CSCCc1ccc(NC(=O)NCc2ccc3c(c2)CN(C2CCC(=O)N(CNC(=O)CNC(=O)CNC(=O)[C@H](Cc4ccccc4)NC(=O)CNC(=O)CNC(=O)CCCCCN4C(=O)C=CC4=O)C2=O)C3=O)cc1Cl` (stereo partly drawn) [Compound (XVII), N-{[({[(1S)-1-[({[({[3-(5-{[({3-chloro-4-[2-(methylsulfanyl)ethyl]phenyl}carbamoyl)amino]methyl}-1-oxo-3H-isoindol-2-yl)-2,6-dioxopiperidin-1-yl]methyl}carbamoyl)methyl]carbamoyl}methyl)carbamoyl]-2-phenylethyl]carbamoyl}methyl)carbamoyl]methyl}-6-(2,5-dioxopyrrol-1-yl)hexanamide] ({Hexanoyl(6-maleimido)}-GGFGG-X1), in assay [2], the “% Payload Released” value is 10.7%; the “By-Products: GGFG*G” value is 72.5%,; the “By-Products: uncleaved” value is given as “uncleaved 16.8%”; the “yield … by papain (in words)” value is listed as “lower yields of the desired payload”.
With `CNCCOCCc1ccc(NC(=O)NCc2ccc3c(c2)CN(C2CCC(=O)N(CNC(=O)CNC(=O)[C@H](Cc4ccccc4)NC(=O)CNC(=O)CNC(=O)CCCCCN4C(=O)C=CC4=O)C2=O)C3=O)cc1Cl` (stereo partly drawn) [Compound (XVIII), N-{[({[(1S)-1-({[({3-[5-({[(3-chloro-4-{2-[2-(methylamino)ethoxy]ethyl}phenyl)carbamoyl]amino}methyl)-1-oxo-3H-isoindol-2-yl]-2,6-dioxopiperidin-1-yl}methyl)carbamoyl]methyl}carbamoyl)-2-phenylethyl]carbamoyl}methyl)carbamoyl]methyl}-6-(2,5-dioxopyrrol-1-yl)hexanamide], in assay [2], the “% Payload Released” value is reported as 97.8% and the “yield … by papain (in words)” value was “excellent yield”.

B1: CD33-D Antibody-Compound (XL) conjugate (antibody, V domains shown)
VH: EVQLVQSGAEVKKPGSSVKVSCKASGYTITDSNIHWVRQAPGQSLEWIGYIYPYNGGTDYNQKFKNRATLTVDNPTNTAYMELSSLRSEDTAFYYCVNGNPWLAYWGQGTLVTVSS
VL: DIQLTQSPSTLSASVGDRVTITCRASESLDNYGIRFLTWFQQKPGKAPKLLMYAASNQGSGVPSRFSGSGSGTEFTLTISSLQPDDFATYYCQQTKEVPWSFGQGTKVEVK
modifications: Compound (XL) linker-payload on reduced interchain cysteine of the constant region, outside this domain; Compound (XL) linker-payload (maleimide) on reduced interchain cysteines of the constant regions, outside this domain; 8.0 Compound (XL)/antibody by LC-MS (Example 2-1)
notes: Antibody-drug conjugate (BRD4 degrader payload)
Consider B1, for which, in assay [4], the EC50 is 270 pM.

B2: CD33-D Antibody-Compound (XIV) conjugate (antibody, V domains shown)
VH: B1 VH
VL: B1 VL
modifications: Compound (XIV) linker-payload on reduced interchain cysteine of the constant region, outside this domain; Compound (XIV) linker-payload on reduced interchain cysteines of the constant regions, outside this domain; 7.9 Compound (XIV)/antibody by LC-MS (Example 2-2)
notes: Antibody-drug conjugate
For B2, in assay [4], the EC50 was determined as 220 pM.

B3: CD33-D antibody (antibody, V domains shown)
VH: B1 VH
VL: B1 VL
notes: also called anti-CD33 antibody CD33-D
The molecule B3 came in with an EC50 in assay [4] of 220 pM.
